Literature values, collected in US9078464B2 (EDIO HEALTHCARE AB, priority 2008, dated 2015).

Settings: in vivo

absorption from the intestine: around 60%
Compound: CC(C)CCC[C@@H](C)[C@H]1CC[C@H]2[C@@H]3CC=C4C[C@@H](O)CC[C@]4(C)[C@H]3CC[C@]12C [cholesterol]
